Earlier results in patent US20050003028A1, “Composition for protection and regeneration of structure and function of the liver” (priority 2001, published 2005).

Details: in vivo

- re-absorbtion into digestive system: weak
Substance: Sylimarin
